Test results taken from patent publication US20240366813A1, “PEPTIDE-UREA DERIVATIVE, PHARMACEUTICAL COMPOSITION CONTAINING SAME AND APPLICATION THEREOF” (Bivision Pharmaceuticals, Inc., priority 0001, published 2024).
“And” between values parts separate entries of the source, which are not always exact repeats. Equal values may be shown once.

Key:
[1] = test system: PSMA-positive cells LNCap; test: Uptake of labeled compounds by PSMA-positive cells LNCap; type: cell-based; settings: 37° C., 0.5 h
Method: LNCap cells (Shangcheng Beina Chuanglian Biotechnology Co., Ltd., Industrial Park, Chengguan Town, Shangcheng County, Xinyang City, Henan Province) were revived and passaged for expansion. After the cells were expanded to a sufficient amount, cells were seeded in a 24-well plate at a density of 1×10^4 cells/well. Uptake tests were performed when cells grew to 80%-90% confluence.
The above labeled compounds ^177Lu-E1, ^177Lu-E2, ^177Lu-E3, ^177Lu-E5, ^177Lu-E9, ^177Lu-E14 and ^177Lu-PSMA-617 were diluted with serum-free medium into 10000, 1000, 100, 10, 1, 0.1 and 0 nM. 1 mL of the diluted solution was added to a 24-well plate, and incubated at 37° C. for 0.5 h. The supernatant was discarded and the cells were washed 3 times with PBS. 250 μL of 1M NaOH solution was added to each well. The cells were pipetted until they were completely dissolved, and transferred to a scintillation vial. 250 μL of NaOH solution was added to each well again to wash the bottom of the well and transferred to a scintillation vial. 2 mL of scintillation fluid was added to each scintillation vial and shaken well. A liquid scintillation counter was used to detect radioactive counts in each vial.

[2] = In vivo metabolism test of 177Lu-labeled complex in SD rats (plasma radioactive counts); settings: for plasma radioactive counts: individual rat, 100 μL plasma; for plasma radioactive counts, MEAN: mean of rats
Method: Eighteen SD rats (Hangzhou Ziyuan Experimental Animal Technology Co., Ltd.), male, weighing 180-200 g, were randomly divided into 6 groups, 3 rats in each group. […] of the labeled precursor compound was injected into the tail vein of each mouse. 250 μL of orbital blood was collected into anticoagulant tubes at 5 min, 0.5 h, 1 h, 2 h, 4 h, 8 h and 24 h after administration. Blood was centrifuged at 3000 rpm for 10 min, and 100 μL of plasma was taken into scintillation vials. 2 mL of scintillation fluid was added to each scintillation vial and shaken well. A liquid scintillation counter was used to detect radioactive counts in each vial.

[3] = test system: LNCaP PSMA-positive tumors; test: SPECT imaging in mice carrying LNCaP PSMA-positive tumors; type: in vivo; settings: 100 μCi tail vein
Method: 100 μCi of ^177Lu-labeled ^177Lu-E3 and ^177Lu-PSMA-617 were injected into mice carrying LNCaP PSMA-positive tumors (Jiangsu Huajing Molecular Imaging and Drug Research Institute Co., Ltd.) through the tail vein respectively. Mice were anesthetized with 2% isoflurane/98% oxygen for SPECT image contrast study.

22rv1 xenograft tumor = test: Pharmacodynamic study in 22rv1 mouse xenograft tumor model (effect example 11); type: in vivo, mice; settings: over the two dose groups
[4] = 5 min after tail vein injection
[5] = 0.5 h after tail vein injection

Compound: O=C([O-])CN1CCN(CC(=O)[O-])CCN(CC(=O)NC23CC(C(=O)NC(Cc4ccc5ccccc5c4)C(=O)NCCCCC(NC(=O)NC(CCC(=O)O)C(=O)O)C(=O)O)(C2)C3)CCN(CC(=O)[O-])CC1.[177Lu+3] (stereo not drawn) [^177Lu-E14]
- uptake by LNCap cells ([1]; 0.1 nM): 28 cpm
- uptake by LNCap cells ([1]; 1 nM): 82 cpm
- uptake by LNCap cells ([1]; 10 nM): 220 cpm
- uptake by LNCap cells ([1]; 100 nM): 345 cpm
- uptake by LNCap cells ([1]; 1000 nM): 479 cpm
- uptake by LNCap cells ([1]; 10000 nM): 362 cpm
- plasma radioactive counts [2, 4]: 42150 cpm and 41058 cpm and 45756 cpm
- plasma radioactive counts [2, 5]: 18047 cpm and 18268 cpm and 18614 cpm
- plasma radioactive counts ([2]; 1 h after tail vein injection): 7200 cpm and 6304 cpm and 6154 cpm
- plasma radioactive counts ([2]; 2 h after tail vein injection): 1415 cpm and 1686 cpm and 1863 cpm
- plasma radioactive counts ([2]; 4 h after tail vein injection): 203 cpm and 198 cpm and 259 cpm
- plasma radioactive counts ([2]; 8 h after tail vein injection): 201 cpm and 206 cpm and 203 cpm
- plasma radioactive counts ([2]; 24 h after tail vein injection): 196 cpm and 175 cpm and 159 cpm
- plasma radioactive counts, MEAN [2, 4]: 42988 cpm
- plasma radioactive counts, MEAN [2, 5]: 18310 cpm
- plasma radioactive counts, MEAN ([2]; 1 h after tail vein injection): 6553 cpm
- plasma radioactive counts, MEAN ([2]; 2 h after tail vein injection): 1655 cpm
- plasma radioactive counts, MEAN ([2]; 4 h after tail vein injection): 220 cpm
- plasma radioactive counts, MEAN ([2]; 8 h after tail vein injection): 203 cpm
- plasma radioactive counts, MEAN ([2]; 24 h after tail vein injection): 177 cpm

Compound: O=C([O-])CN1CCN(CC(=O)[O-])CCN(CC(=O)Nc2nc3cc(C(=O)NC(Cc4ccc5ccccc5c4)C(=O)NCCCCC(NC(=O)NC(CCC(=O)O)C(=O)O)C(=O)O)ccc3s2)CCN(CC(=O)[O-])CC1.[177Lu+3] (stereo not drawn) [^177Lu-E1]
- uptake by LNCap cells ([1]; 0.1 nM): 39 cpm
- uptake by LNCap cells ([1]; 1 nM): 169 cpm
- uptake by LNCap cells ([1]; 10 nM): 77 cpm
- uptake by LNCap cells ([1]; 100 nM): 121 cpm
- uptake by LNCap cells ([1]; 1000 nM): 331 cpm
- uptake by LNCap cells ([1]; 10000 nM): 1595 cpm
- plasma radioactive counts [2, 4]: 28305 cpm and 17143 cpm
- plasma radioactive counts [2, 5]: 9829 cpm and 8252 cpm
- plasma radioactive counts ([2]; 1 h after tail vein injection): 3505 cpm and 3389 cpm
- plasma radioactive counts ([2]; 2 h after tail vein injection): 615 cpm and 1288 cpm
- plasma radioactive counts ([2]; 4 h after tail vein injection): 163 cpm and 315 cpm
- plasma radioactive counts ([2]; 8 h after tail vein injection): 174 cpm and 179 cpm
- plasma radioactive counts ([2]; 24 h after tail vein injection): 151 cpm and 169 cpm
- plasma radioactive counts, MEAN [2, 4]: 22724 cpm
- plasma radioactive counts, MEAN [2, 5]: 9041 cpm
- plasma radioactive counts, MEAN ([2]; 1 h after tail vein injection): 3447 cpm
- plasma radioactive counts, MEAN ([2]; 2 h after tail vein injection): 952 cpm
- plasma radioactive counts, MEAN ([2]; 4 h after tail vein injection): 239 cpm
- plasma radioactive counts, MEAN ([2]; 8 h after tail vein injection): 177 cpm
- plasma radioactive counts, MEAN ([2]; 24 h after tail vein injection): 160 cpm

Compound: O=C([O-])CN1CCN(CC(=O)[O-])CCN(CC(=O)NCC2CCC(C(=O)N[C@@H](Cc3ccc4ccccc4c3)C(=O)NCCCC[C@H](NC(=O)N[C@@H](CCC(=O)O)C(=O)O)C(=O)O)CC2)CCN(CC(=O)[O-])CC1.[177Lu+3] (stereo partly drawn) [^177Lu-PSMA-617, reference compound]
- uptake by LNCap cells ([1]; 0.1 nM): 49 cpm
- uptake by LNCap cells ([1]; 1 nM): 67 cpm
- uptake by LNCap cells ([1]; 10 nM): 225 cpm
- uptake by LNCap cells ([1]; 100 nM): 389 cpm
- uptake by LNCap cells ([1]; 1000 nM): 599 cpm
- uptake by LNCap cells ([1]; 10000 nM): 1625 cpm
- plasma radioactive counts [2, 4]: 24449 cpm and 23276 cpm and 22010 cpm
- plasma radioactive counts [2, 5]: 9783 cpm and 13738 cpm and 14589 cpm
- plasma radioactive counts ([2]; 1 h after tail vein injection): 3865 cpm and 6988 cpm and 7736 cpm
- plasma radioactive counts ([2]; 2 h after tail vein injection): 679 cpm and 1346 cpm and 1544 cpm
- plasma radioactive counts ([2]; 4 h after tail vein injection): 207 cpm and 219 cpm and 225 cpm
- plasma radioactive counts ([2]; 8 h after tail vein injection): 188 cpm and 187 cpm and 170 cpm
- plasma radioactive counts ([2]; 24 h after tail vein injection): 173 cpm and 176 cpm and 178 cpm
- plasma radioactive counts, MEAN [2, 4]: 23245 cpm
- plasma radioactive counts, MEAN [2, 5]: 12703 cpm
- plasma radioactive counts, MEAN ([2]; 1 h after tail vein injection): 6196 cpm
- plasma radioactive counts, MEAN ([2]; 2 h after tail vein injection): 1190 cpm
- plasma radioactive counts, MEAN ([2]; 4 h after tail vein injection): 217 cpm
- plasma radioactive counts, MEAN ([2]; 8 h after tail vein injection): 182 cpm
- plasma radioactive counts, MEAN ([2]; 24 h after tail vein injection): 176 cpm
- Heart, Averaged ([3]; 1 h): 1.59 % ID/cc
- Kidney, Averaged ([3]; 1 h): 58.17 % ID/cc
- Liver, Averaged ([3]; 1 h): 1.61 % ID/cc
- Lung, Averaged ([3]; 1 h): 3.30 % ID/cc
- Tumor, Averaged ([3]; 1 h): 19.42 % ID/cc
- Heart, Averaged ([3]; 4 h): 1.47 % ID/cc
- Kidney, Averaged ([3]; 4 h): 8.37 % ID/cc
- Liver, Averaged ([3]; 4 h): 1.27 % ID/cc
- Lung, Averaged ([3]; 4 h): 1.54 % ID/cc
- Tumor, Averaged ([3]; 4 h): 10.68 % ID/cc
- Heart, Averaged ([3]; 8 h): 0.53 % ID/cc
- Kidney, Averaged ([3]; 8 h): 4.35 % ID/cc
- Liver, Averaged ([3]; 8 h): 1.04 % ID/cc
- Lung, Averaged ([3]; 8 h): 0.86 % ID/cc
- Tumor, Averaged ([3]; 8 h): 9.4 % ID/cc
- Heart, Averaged ([3]; 1 d): 1.45 % ID/cc
- Kidney, Averaged ([3]; 1 d): 1.16 % ID/cc
- Liver, Averaged ([3]; 1 d): 1.43 % ID/cc
- Lung, Averaged ([3]; 1 d): 0.85 % ID/cc
- Tumor, Averaged ([3]; 1 d): 2.19 % ID/cc
- Heart, Averaged ([3]; 3 d): 0.46 % ID/cc
- Kidney, Averaged ([3]; 3 d): 1.55 % ID/cc
- Liver, Averaged ([3]; 3 d): 0.96 % ID/cc
- Lung, Averaged ([3]; 3 d): 3.74 % ID/cc
- Tumor, Averaged ([3]; 3 d): 4.76 % ID/cc
- tumor growth inhibition rate (22rv1 xenograft tumor): 15-21%

Compound: O=C([O-])CN1CCN(CC(=O)[O-])CCN(CC(=O)N2CC3(CCC(C(=O)NC(Cc4ccc5ccccc5c4)C(=O)NCCCCC(NC(=O)NC(CCC(=O)O)C(=O)O)C(=O)O)CC3)C2)CCN(CC(=O)[O-])CC1.[177Lu+3] (stereo not drawn) [^177Lu-E2]
- uptake by LNCap cells ([1]; 0.1 nM): 29 cpm
- uptake by LNCap cells ([1]; 1 nM): 91 cpm
- uptake by LNCap cells ([1]; 10 nM): 344 cpm
- uptake by LNCap cells ([1]; 100 nM): 596 cpm
- uptake by LNCap cells ([1]; 1000 nM): 775 cpm
- uptake by LNCap cells ([1]; 10000 nM): 1328 cpm
- plasma radioactive counts [2, 4]: 37703 cpm and 41406 cpm
- plasma radioactive counts [2, 5]: 18427 cpm and 15030 cpm
- plasma radioactive counts ([2]; 1 h after tail vein injection): 7473 cpm and 5428 cpm
- plasma radioactive counts ([2]; 2 h after tail vein injection): 1863 cpm and 1189 cpm
- plasma radioactive counts ([2]; 4 h after tail vein injection): 296 cpm and 219 cpm
- plasma radioactive counts ([2]; 8 h after tail vein injection): 178 cpm and 190 cpm
- plasma radioactive counts ([2]; 24 h after tail vein injection): 167 cpm and 170 cpm
- plasma radioactive counts, MEAN [2, 4]: 39555 cpm
- plasma radioactive counts, MEAN [2, 5]: 16729 cpm
- plasma radioactive counts, MEAN ([2]; 1 h after tail vein injection): 6451 cpm
- plasma radioactive counts, MEAN ([2]; 2 h after tail vein injection): 1526 cpm
- plasma radioactive counts, MEAN ([2]; 4 h after tail vein injection): 258 cpm
- plasma radioactive counts, MEAN ([2]; 8 h after tail vein injection): 184 cpm
- plasma radioactive counts, MEAN ([2]; 24 h after tail vein injection): 169 cpm

Compound: O=C([O-])CN1CCN(CC(=O)[O-])CCN(CC(=O)N2CCC3(CCC(C(=O)NC(Cc4ccc5ccccc5c4)C(=O)NCCCCC(NC(=O)NC(CCC(=O)O)C(=O)O)C(=O)O)CC3)CC2)CCN(CC(=O)[O-])CC1.[177Lu+3] (stereo not drawn) [^177Lu-E9]
- uptake by LNCap cells ([1]; 0.1 nM): 56 cpm
- uptake by LNCap cells ([1]; 1 nM): 55 cpm
- uptake by LNCap cells ([1]; 10 nM): 84 cpm
- uptake by LNCap cells ([1]; 100 nM): 140 cpm
- uptake by LNCap cells ([1]; 1000 nM): 405 cpm
- uptake by LNCap cells ([1]; 10000 nM): 1194 cpm
- plasma radioactive counts [2, 4]: 30764 cpm and 38134 cpm and 30001 cpm
- plasma radioactive counts [2, 5]: 10391 cpm and 12249 cpm and 8575 cpm
- plasma radioactive counts ([2]; 1 h after tail vein injection): 4483 cpm and 4139 cpm and 2519 cpm
- plasma radioactive counts ([2]; 2 h after tail vein injection): 892 cpm and 652 cpm and 346 cpm
- plasma radioactive counts ([2]; 4 h after tail vein injection): 210 cpm and 196 cpm and 197 cpm
- plasma radioactive counts ([2]; 8 h after tail vein injection): 171 cpm and 184 cpm and 161 cpm
- plasma radioactive counts ([2]; 24 h after tail vein injection): 164 cpm and 162 cpm and 183 cpm
- plasma radioactive counts, MEAN [2, 4]: 32966 cpm
- plasma radioactive counts, MEAN [2, 5]: 10405 cpm
- plasma radioactive counts, MEAN ([2]; 1 h after tail vein injection): 3714 cpm
- plasma radioactive counts, MEAN ([2]; 2 h after tail vein injection): 630 cpm
- plasma radioactive counts, MEAN ([2]; 4 h after tail vein injection): 201 cpm
- plasma radioactive counts, MEAN ([2]; 8 h after tail vein injection): 172 cpm
- plasma radioactive counts, MEAN ([2]; 24 h after tail vein injection): 170 cpm
